# Laboratory results taken from ChEMBL document CHEMBL1201862, “PubChem BioAssay data set” (2004).
#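 Assay format: 96-well plates, 48-hour exposure. Here, GI50 denotes the concentration required for 50% inhibition of growth.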 Calls of active or inactive are those of the source. Cut-off read from the data, not from the text of the source: active = GI50 up to about 1.1 µM and inactive = higher.
# Legend:
# Experiment in all cases: NCI tumour cell line growth inhibition, 48 h
# UO-31 = test system: UO-31
# K562 = test system: K562
# COLO 205 = test system: COLO 205
# MOLT-4 = test system: MOLT-4
# SK-OV-3 = test system: SK-OV-3
# HCT-116 = test system: HCT-116
# LOX IMVI = test system: LOX IMVI
# SF-268 = test system: SF-268
# 786-0 = test system: 786-0
# SR = test system: SR
# NCI/ADR-RES = test system: NCI/ADR-RES
# CCRF-CEM = test system: CCRF-CEM
# A498 = test system: A498
# NCI-H226 = test system: NCI-H226
# HT-29 = test system: HT-29
# IGROV-1 = test system: IGROV-1
# SK-MEL-28 = test system: SK-MEL-28
# BT-549 = test system: BT-549
# CAKI-1 = test system: CAKI-1
SMILES,GI50 (UO-31),GI50 (K562),GI50 (COLO 205),GI50 (MOLT-4),GI50 (SK-OV-3),GI50 (HCT-116),GI50 (LOX IMVI),GI50 (SF-268),GI50 (786-0),GI50 (SR),GI50 (NCI/ADR-RES),GI50 (CCRF-CEM),GI50 (A498),GI50 (NCI-H226),GI50 (HT-29),GI50 (IGROV-1),GI50 (SK-MEL-28),GI50 (BT-549),GI50 (CAKI-1)
C/C1=C\[C@H](C)C[C@H](C)OC(=O)C[C@H](c2ccc(O)cc2)NC(=O)[C@H](Cc2ccc(O)c(I)c2)N(C)C(=O)[C@H](C)NC(=O)[C@@H](C)C1,0.0535 µM (active),1.31 µM (inactive),0.0161 µM (active),0.258 µM (active),0.054 µM (active),0.016 µM (active),0.00411 µM (active),0.011 µM (active),0.0148 µM (active),0.0968 µM (active),1.11 µM (active),0.00497 µM (active),0.016 µM (active),0.0153 µM (active),0.00274 µM (active),0.0121 µM (active),0.0112 µM (active),–,–
Nn1c(CCCCCCCCc2nnc(COc3ccc(Cl)cc3Cl)n2N)nnc1COc1ccc(Cl)cc1Cl,47.1 µM (inactive),63.8 µM (inactive),25.8 µM (inactive),20 µM (inactive),> 10 µM (inactive),16.7 µM (inactive),–,33 µM (inactive),63.5 µM (inactive),–,31.1 µM (inactive),–,45.3 µM (inactive),63.5 µM (inactive),29.1 µM (inactive),6.43 µM (inactive),68.5 µM (inactive),35.9 µM (inactive),41.9 µM (inactive)
C=C1C(C)C2C(Cc3ccccc3)NC(=O)C23OC(=O)/C=C\CC(=O)CCC(C)C/C=C/C3C1O (stereo not given),0.512 µM (active),0.757 µM (active),1.34 µM (inactive),0.91 µM (active),6.05 µM (inactive),2.54 µM (inactive),0.875 µM (active),1.66 µM (inactive),0.438 µM (active),–,–,–,1.37 µM (inactive),1.92 µM (inactive),1.54 µM (inactive),3.42 µM (inactive),1.39 µM (inactive),–,0.421 µM (active)
CCOC(CCCN1CCC2(CC1)C(=O)N(C)CN2c1ccccc1)(OCC)c1ccc(F)cc1,7.01 µM (inactive),14 µM (inactive),2.52 µM (inactive),7.11 µM (inactive),21.8 µM (inactive),3.82 µM (inactive),16.1 µM (inactive),12.9 µM (inactive),14.6 µM (inactive),–,13.7 µM (inactive),4.42 µM (inactive),–,18.3 µM (inactive),3.49 µM (inactive),8.41 µM (inactive),16.8 µM (inactive),–,6.59 µM (inactive)
CNC(=O)N1CN(c2ccccc2)C2(CCN(Cc3ccccc3)CC2)C1=O,11.3 µM (inactive),31.8 µM (inactive),35.6 µM (inactive),14.2 µM (inactive),4.18 µM (inactive),24.9 µM (inactive),50.5 µM (inactive),> 100 µM (inactive),> 100 µM (inactive),15.7 µM (inactive),12.2 µM (inactive),53.5 µM (inactive),–,> 100 µM (inactive),15.6 µM (inactive),5 µM (inactive),> 100 µM (inactive),–,> 100 µM (inactive)
CC(=O)OC1CC[C@@]2(C)C(C1)CC(OC(C)=O)[C@@H]1C2CC(OC(C)=O)[C@]2(C)C(C(C)CC=C(c3ccc(Cl)cc3)c3ccc(Cl)cc3)CCC12 (stereo not given in full),56.2 µM (inactive),15.2 µM (inactive),> 100 µM (inactive),20 µM (inactive),> 100 µM (inactive),19.6 µM (inactive),–,59.3 µM (inactive),> 100 µM (inactive),20.2 µM (inactive),> 100 µM (inactive),16.3 µM (inactive),–,–,39 µM (inactive),> 100 µM (inactive),> 100 µM (inactive),–,–
